Measurements from patent US20110053947A1, “Arylchalcogenoarylalkyl-substituted imidazolidine-2,4-diones, process for preparation thereof, medicaments comprising these compounds and use thereof” (SANOFI-AVENTIS, priority 2008, published 2011).

molecular target: T1, cannabinoid 1 receptor (hCB1R) (Homo sapiens, UniProt P21554); test: In vitro functional assay with recombinant cells (FLIPR), CB1; assay type: cell-based; conditions: recombinant HEK293 cells expressing CB1 and G-protein; intracellular Ca2+ change after reference agonist, 20 min preincubation; read-out: hCB1R: FLIPR; IC50
T1 construct: expressed in transfected cells; host or cells: HEK293
Method: In vitro functional assays with recombinant cells:
Function-testing assays were performed by means of the FLIPR technique (“Fluorometric Imaging Plate Reader”, Molecular Devices Corp.).
To this end, ligand-induced changes in the intracellular concentration of Ca^2+ in recombinant HEK293 cells, which expressed both a cannabinoid receptor (CB1 or CB2) and G-protein Galphal6, were determined. For the studies, cells were sown into 96-well microtiter plates (60 000 cells/well) and left to grow overnight. The medium was removed and the cells were incubated in buffer which contained the fluorescent dye Fluo-4. After this loading with dye, the cells were washed, test substance was added dissolved in buffer, the mixture was incubated for 20 minutes, a known cannabinoid receptor agonist as a reference agonist was added in buffer and, finally, the changes in the intracellular Ca^2+ concentration were measured in the FLIPR unit.
Results were presented as the percentage change relative to the control (0%: analogous experiment without test substance and without reference agonist, i.e. only with buffer; 100%: analogous experiment without test substance, but with reference agonist in excess), and used to calculate dose/action curves, and IC50 values were determined.
The values of the functional assay compared to the cannabinoid 1 receptor including illustrative selectivities compared to the cannabinoid 2 receptor can be taken from table 1 which follows.

T1 sequence (P21554 whole entry): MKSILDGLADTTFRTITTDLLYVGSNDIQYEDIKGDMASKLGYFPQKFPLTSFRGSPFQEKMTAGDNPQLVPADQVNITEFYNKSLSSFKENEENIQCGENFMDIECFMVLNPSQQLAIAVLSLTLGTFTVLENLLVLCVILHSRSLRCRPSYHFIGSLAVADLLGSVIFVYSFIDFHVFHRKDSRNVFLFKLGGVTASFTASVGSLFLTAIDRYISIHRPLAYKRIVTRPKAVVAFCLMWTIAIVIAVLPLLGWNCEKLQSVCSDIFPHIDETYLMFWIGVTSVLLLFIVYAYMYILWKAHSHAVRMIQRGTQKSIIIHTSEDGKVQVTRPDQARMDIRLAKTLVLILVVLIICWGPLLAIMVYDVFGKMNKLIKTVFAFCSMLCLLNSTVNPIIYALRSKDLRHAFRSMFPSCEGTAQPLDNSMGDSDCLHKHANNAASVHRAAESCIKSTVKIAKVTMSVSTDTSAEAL

Point of comparison: CC1(C)C(=O)N(c2ccc(C#N)c(C(F)(F)F)c2)C(=O)N1Cc1ccc(F)cc1NC(=O)Nc1ccc(S(C)(=O)=O)cc1 [Example 19, 1-{2-[3-(4-Cyano-3-trifluoromethylphenyl)-5,5-dimethyl-2,4-dioxoimidazolidin-1-ylmethyl]-5-fluorophenyl}-3-(4-methane-sulfonylphenyl)urea], IC50 9 nM. Against it:
- CC1(C)C(=O)N(c2ccc(F)c(C(F)(F)F)c2)C(=O)N1Cc1ccc(F)cc1NC(=O)Nc1ccc(NS(C)(=O)=O)cc1 [Example 31, N-[4-(3-{5-Fluoro-2-[3-(4-fluoro-3-trifluoromethylphenyl)-5,5-dimethyl-2,4-dioxoimidazolidin-1-ylmethyl]phenyl}ureido)phenyl]methanesulfonamide] — 3.6-fold higher, 32 nM
- CC1(C)C(=O)N(c2ccc(C#N)c(C(F)(F)F)c2)C(=O)N1Cc1ccc(F)cc1NC(=O)Nc1ccc(S(N)(=O)=O)cc1 [Example 22, 4-(3-{2-[3-(4-Cyano-3-trifluoromethylphenyl)-5,5-dimethyl-2,4-dioxoimidazolidin-1-ylmethyl]-5-fluorophenyl}ureido)benzenesulfonamide] — the same, 9 nM
- CC1(C)C(=O)N(c2ccc(C#N)c(C3CC3)c2)C(=O)N1Cc1ccc(F)cc1NC(=O)Nc1ccc(S(C)(=O)=O)cc1 [Example 30, 1-{2-[3-(4-Cyano-3-cyclopropylphenyl)-5,5-dimethyl-2,4-dioxoimidazolidin-1-ylmethyl]-5-fluorophenyl}-3-(4-methanesulfonylphenyl)urea] — within 1.5-fold, 11 nM
- CC1(C)C(=O)N(c2ccc(C#N)c(C3CC3)c2)C(=O)N1Cc1cc(C(F)(F)F)ccc1NC(=O)Nc1ccc(S(C)(=O)=O)cc1 [Example 66, 1-{2-[3-(4-Cyano-3-cyclopropylphenyl)-5,5-dimethyl-2,4-dioxoimidazolidin-1-ylmethyl]-4-trifluoromethylphenyl}-3-(4-methanesulfonylphenyl)urea] — within 1.5-fold, 10 nM
- CC1(C)C(=O)N(c2ccc(F)c(C(F)(F)F)c2)C(=O)N1Cc1ccc(F)cc1NC(=O)Nc1ccc(S(C)(=O)=O)cc1 [Example 27, 1-{5-Fluoro-2-[3-(4-fluoro-3-trifluoromethylphenyl)-5,5-dimethyl-2,4-dioxoimidazolidin-1-ylmethyl]phenyl}-3-(4-methanesulfonylphenyl)urea] — within 1.5-fold, 13 nM
- CC1(C)C(=O)N(c2ccc(F)c(C(F)(F)F)c2)C(=O)N1Cc1ccc(F)cc1NC(=O)Nc1ccc(C(=O)NS(=O)(=O)C2CC2)cc1 [Example 65, N-[4-(3-{5-fluoro-2-[3-(4-fluoro-3-trifluoromethylphenyl)-5,5-dimethyl-2,4-dioxoimidazolidin-1-ylmethyl]phenyl}ureido)benzoyl]cyclopropanesulfonamide] — 4.7-fold higher, 42 nM

molecular target: T2, CHO-K1/cannabinoid CB1 (hCB1R) (Homo sapiens, UniProt P21554); test: Binding to the CB1 receptor ([3H]-SR141716A displacement); conditions: [3H]-SR141716A 0.5 nM; Ki from IC50 and Kd by Cheng-Prusoff; average of double determination; read-out: hCB1R; Bindung Ki
T2 construct: expressed in transfected cells; host or cells: CHO-K1
Method: Binding to the CB 1 Receptor:
Test compounds: The compounds (3 μl, 10 mM, 100% DMSO), pipetted into 96-well PP microtiter plates, were diluted with 27 μl of 100% DMSO (dimethyl sulfoxide). Proceeding from this solution, further 3-fold dilution steps were undertaken by transferring 10 μl in each case to a new PP microtiter plate and adding a further 20 μl of 100% DMSO. In each case 6 μA of these solutions were transferred into new 96-well PP microtiter plates and made up with 144 μl of assay buffer. The end concentrations ranged from 10 μM to 0.005 μM. Negative control: AM 251, dissolved in assay buffer with 1% DMSO, was added to the dilution series in the microtiter plates as a control. The end concentration was 1 μM. Blank control: assay buffer with 1% DMSO was added to the dilution series of the microtiter plates as a blank control.
Summary of the Assay Parameters:
The values were calculated using the corrected raw data.
The values reported were obtained as average values of a double determination. The IC50 values were calculated from the measurements with the program Xlfit, formula 205. Ki values were obtained from the IC50 and Kd values utilizing the Cheng-Prusoff equation: […]
Literature: Cheng, Y.-C., and Prusoff, W. H. (1973) Biochem. Pharmacol 22, 3099-3108 Results: Ki values of example compounds; Table 2: […]

T2 sequence (P21554 whole entry): as above

Point of comparison: CCOP(=O)(OCC)c1ccc(NC(=O)Nc2cc(F)ccc2CN2C(=O)N(c3ccc(F)c(C(F)(F)F)c3)C(=O)C2(C)C)cc1 [Example 32, Diethyl [4-(3-{5-fluoro-2-[3-(4-fluoro-3-trifluoromethylphenyl)-5,5-dimethyl-2,4-dioxoimidazolidin-1-ylmethyl]phenyl}ureido)phenyl]phosphonate], Ki 40 nM. Against it:
- CC1(C)C(=O)N(c2ccc(C#N)c(C(F)(F)F)c2)C(=O)N1Cc1ccc(F)cc1NC(=O)Nc1ccc(C(=O)O)cc1 [Example 18, 4-(3-{2-[3-(4-Cyano-3-trifluoromethylphenyl)-5,5-dimethyl-2,4-dioxoimidazolidin-1-ylmethyl]-5-fluorophenyl}ureido)benzoic acid] — 1.7-fold higher, 68 nM
- CC1(C)C(=O)N(c2ccc(C#N)c(C(F)(F)F)c2)C(=O)N1Cc1ccc(F)cc1NC(=O)Nc1cc(Cl)nc(Cl)c1 [Example 21, 1-{2-[3-(4-cyano-3-trifluoromethylphenyl)-5,5-dimethyl-2,4-dioxoimidazolidin-1-ylmethyl]-5-fluorophenyl}-3-(2,6-dichloropyridin-4-yl)urea] — within 1.5-fold, 34 nM
- CC1(C)C(=O)N(c2ccc(C#N)c(C(F)(F)F)c2)C(=O)N1Cc1ccccc1NC(=O)Nc1ccc(F)cc1F [Example 7, 1-{2-[3-(4-cyano-3-trifluoromethylphenyl)-5,5-dimethyl-2,4-dioxoimidazolidin-1-ylmethyl]phenyl}-3-(2,4-difluorophenyl)urea] — 1.8-fold higher, 73 nM
- COC(=O)CS(=O)(=O)c1ccc(NC(=O)Nc2cc(F)ccc2CN2C(=O)N(c3ccc(C#N)c(C4CC4)c3)C(=O)C2(C)C)cc1 [Example 46, Methyl [4-(3-{2-[3-(4-cyano-3-cyclopropylphenyl)-5,5-dimethyl-2,4-dioxoimidazolidin-1-ylmethyl]-5-fluorophenyl}ureido)benzenesulfonyl]acetate] — 5.7-fold lower, 7 nM
- CCS(=O)(=O)c1ccc(NC(=O)Nc2cc(F)ccc2CN2C(=O)N(c3ccc(C#N)c(C4CC4)c3)C(=O)C2(C)C)cc1 [Example 45, 1-{2-[3-(4-Cyano-3-cyclopropylphenyl)-5,5-dimethyl-2,4-dioxoimidazolidin-1-ylmethyl]-5-fluorophenyl}-3-(4-ethanesulfonylphenyl)urea] — 6.7-fold lower, 6 nM
- CC1(C)C(=O)N(c2ccc(C#N)c(C(F)(F)F)c2)C(=O)N1Cc1ccccc1NC(=O)Nc1ccccc1 [Example 9, 1-{2-[3-(4-cyano-3-trifluoromethylphenyl)-5,5-dimethyl-2,4-dioxoimidazolidin-1-ylmethyl]phenyl}-3-phenylurea] — within 1.5-fold, 32 nM
- CC1(C)C(=O)N(c2ccc(C#N)c(C(F)(F)F)c2)C(=O)N1Cc1ccccc1NC(=O)Nc1ccc(S(C)(=O)=O)cc1 [Example 13, 1-{2-[3-(4-cyano-3-trifluoromethylphenyl)-5,5-dimethyl-2,4-dioxoimidazolidin-1-ylmethyl]phenyl}-3-(4-methanesulfonylphenyl)urea] — 5.7-fold lower, 7 nM
- COC(=O)c1ccc(NC(=O)Nc2cc(F)ccc2CN2C(=O)N(c3ccc(C#N)c(C(F)(F)F)c3)C(=O)C2(C)C)nc1 [Example 42, methyl 6-(3-{2-[3-(4-cyano-3-trifluoromethylphenyl)-5,5-dimethyl-2,4-dioxoimidazolidin-1-ylmethyl]-5-fluorophenyl}ureido)nicotinate] — within 1.5-fold, 35 nM
- CC1(C)C(=O)N(c2ccc(F)c(C(F)(F)F)c2)C(=O)N1Cc1ccc(F)cc1NC(=O)Nc1ccc(S(N)(=O)=O)cc1 [Example 24, 4-(3-{5-fluoro-2-[3-(4-fluoro-3-trifluoromethylphenyl)-5,5-dimethyl-2,4-dioxoimidazolidin-1-ylmethyl]phenyl}ureido)benzenesulfonamide] — 4.4-fold lower, 9 nM
- COC(=O)c1ccc(NC(=O)Nc2cc(F)ccc2CN2C(=O)N(c3ccc(F)c(C(F)(F)F)c3)C(=O)C2(C)C)cc1 [Example 59, methyl 4-(3-{5-fluoro-2-[3-(4-fluoro-3-trifluoromethylphenyl)-5,5-dimethyl-2,4-dioxoimidazolidin-1-ylmethyl]phenyl}ureido)benzoate] — within 1.5-fold, 29 nM
- C[S+]([O-])c1ccc(NC(=O)Nc2ccccc2CN2C(=O)N(c3ccc(C#N)c(C(F)(F)F)c3)C(=O)C2(C)C)cc1 (centres unmarked) [Example 12, 1-{2-[3-(4-cyano-3-trifluoromethylphenyl)-5,5-dimethyl-2,4-dioxoimidazolidin-1-ylmethyl]phenyl}-3-(4-methanesulfinylphenyl)urea] — 3.6-fold lower, 11 nM
- CC1(C)C(=O)N(c2ccc(C#N)c(C(F)(F)F)c2)C(=O)N1Cc1ccccc1NS(=O)(=O)Cc1ccc(F)cc1F [Example 15, N-{2-[3-(4-cyano-3-trifluoromethylphenyl)-5,5-dimethyl-2,4-dioxoimidazolidin-1-ylmethyl]phenyl}-C-(2,4-difluorophenyl)methanesulfonamide] — within 1.5-fold, 58 nM
